The values below come from US9920017B2, “Heterocyclic compounds as pesticides” (BAYER CROPSCIENCE AKTIENGESELLSCHAFT, priority 2014, dated 2018).

Molecules are shown by their SMILES.

One data set concerns Haemonchus contortus. The experiment in a line: Haemonchus contortus test. Format: in vivo. The settings on record: 20 ppm; larvae; after 5 days. As for the experimental part: Haemonchus contortus Test Solvent: dimethyl sulphoxide To produce an appropriate active ingredient formulation, 10 mg of active ingredient are mixed with 0.5 ml of dimethyl sulphoxide and the concentrate is diluted with “Ringer's solution” to the desired concentration. Vessels containing the active ingredient formulation of the desired concentration are populated with about 40 larvae of the red stomach worm (Haemonchus contortus). After 5 days, the kill in % is determined 100% means that all the larvae have been killed; 0% means that none of the larvae have been killed.

The nature of data set [1]: Determination of log P values by HPLC (reversed-phase C18). Format: physicochemical. The settings on record: HPLC, reversed-phase C18, 55° C.; final compounds table. The method in brief:
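Log P per EEC Directive 79/831 Annex V.A8 by reversed-phase C18 HPLC at 55 °C, […], gradient 10→95% acetonitrile in 4.25 min. Calibrated with unbranched alkan-2-ones (C3–C16) by retention-time interpolation; lambda max from UV spectra 200–400 nm.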

A further data set has as its system Cooperia curticei. The experiment in a line: Cooperia curticei test. Format: in vivo. The settings on record: 20 ppm; nematode larvae; after 5 days. As for the experimental part: Solvent: dimethyl sulphoxide
To produce an appropriate active ingredient formulation, 10 mg of active ingredient are mixed with 0.5 ml of dimethyl sulphoxide and the concentrate is diluted with “Ringer's solution” to the desired concentration.
Vessels containing the active ingredient formulation of the desired concentration are populated with about 40 nematode larvae (Cooperia curticei).
After 5 days, the kill in % is determined 100% means that all the larvae have been killed; 0% means that none of the larvae have been killed.

For a further data set, the system named is Meloidogyne incognita. Description: Meloidogyne incognita test (MELGIN). Format: in vivo. The settings on record: 20 ppm; lettuce; after 14 days. Here is the method:
Meloidogyne incognita Test (MELGIN) Solvent: 125.0 parts by weight of acetone To produce a suitable active ingredient formulation, 1 part by weight of active ingredient is mixed with the stated amount of solvent and the concentrate is diluted with water to the desired concentration. Vessels are filled with sand, active ingredient solution, an egg/larvae suspension of the southern root-knot nematode (Meloidogyne incognita) and lettuce seeds. The lettuce seeds germinate and the plants develop. The galls develop on the roots. After 14 days, the nematicidal efficacy in % is determined by the formation of galls. 100% means that no galls were found; 0% means that the number of galls on the treated plants corresponds to the untreated control.

The test system of the next data set is Tetranychus urticae. The experiment in a line: Tetranychus urticae spray test, OP-resistant. The format is in vivo. The settings on record: 500 g/ha, bean leaf discs, after 6 days. As for the experimental part: Tetranychus urticae—Spray Test, OP-Resistant
Solvent: 78.0 parts by weight of acetone • • 1.5 parts by weight of dimethylformamide
(§1) Emulsifier: alkylaryl polyglycol ether
(§2) To produce an appropriate active ingredient formulation, 1 part by weight of active ingredient is dissolved using the stated parts by weight of solvent and made up with water containing an emulsifier concentration of 1000 ppm until the desired concentration is attained. To produce further test concentrations, the preparation is diluted with emulsifier-containing water.
Discs of bean leaves (Phaseolus vulgaris) infested by all stages of the greenhouse red spider mite (Tetranychus urticae) are sprayed with an active ingredient formulation of the desired concentration.
After 6 days, the efficacy in % is determined. 100% means that all the spider mites have been killed; 0% means that no spider mites have been killed.

In another data set the test system is Myzus persicae. The experiment in a line: Myzus persicae spray test. The format is in vivo. Particulars: 500 g/ha; Chinese cabbage leaf discs; after 6 days. Here is the method: Myzus persicae—Spray Test
Solvent: 78 parts by weight of acetone • • 1.5 parts by weight of dimethylformamide
as §1, §2
Discs of Chinese cabbage leaves (Brassica pekinensis) infested by all stages of the green peach aphid (Myzus persicae) are sprayed with an active ingredient formulation of the desired concentration.
After 6 days, the efficacy in % is determined 100% means that all the aphids have been killed; 0% means that no aphids have been killed.

Turning to `O=C(Nc1ncn(-c2c(F)cccc2F)n1)c1ccccc1I` [Compound I-1-21], the results for the “efficacy (kill)” value with Haemonchus contortus and in the data set with Cooperia curticei were 80% and 100%, respectively. In data set [1], the “log P neutral” value is listed as 1.89. In addition, the “nematicidal efficacy (formation of galls)” value with Meloidogyne incognita came out at 100%.

Molecule `Cc1cc(C)c([S+]([O-])CC(F)(F)F)cc1-n1cnc(NC(=O)c2ccccc2C(F)(F)F)n1` (centres unmarked) [Compound I-1-90] showed an efficacy in the data set with Tetranychus urticae of 95%. The “log P neutral” value in data set [1] came out at 2.31.

As for `O=C(Nc1ncn(-c2ccccc2Br)n1)c1ccccc1I` [Compound I-1-72], in data set [1], the “log P neutral” value is on record as 2.09. In addition, the efficacy in the data set on Myzus persicae worked out at 90%.
